Columns and labels:
Assay type in all cases: binding
Details in all cases: Compound Concentration 10 µM
[1] = target: T1, panel of 442 kinases (Homo sapiens, UniProt P51817)
T1 construct: purchased KINOMEscan
T1 sequence (P51817 1-358): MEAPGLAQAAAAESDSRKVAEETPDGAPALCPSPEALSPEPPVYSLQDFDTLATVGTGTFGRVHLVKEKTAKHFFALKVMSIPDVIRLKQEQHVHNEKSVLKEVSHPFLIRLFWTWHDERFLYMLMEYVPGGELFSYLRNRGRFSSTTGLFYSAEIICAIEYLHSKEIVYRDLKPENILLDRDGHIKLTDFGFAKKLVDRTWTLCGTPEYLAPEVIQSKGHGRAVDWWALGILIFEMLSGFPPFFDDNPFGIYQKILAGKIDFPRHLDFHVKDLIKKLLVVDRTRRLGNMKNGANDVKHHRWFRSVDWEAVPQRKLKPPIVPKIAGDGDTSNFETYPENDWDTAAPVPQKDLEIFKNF
Excerpt: (§1) We assessed the selectivity of members of this scaffold using the KINOMEscan methodology across a near comprehensive panel of 442 kinases [[18,27]].

[2] = target: T2, panel of 442 kinases (Homo sapiens, UniProt O94921)
T2 construct: purchased KINOMEscan
T2 sequence (O94921 whole entry): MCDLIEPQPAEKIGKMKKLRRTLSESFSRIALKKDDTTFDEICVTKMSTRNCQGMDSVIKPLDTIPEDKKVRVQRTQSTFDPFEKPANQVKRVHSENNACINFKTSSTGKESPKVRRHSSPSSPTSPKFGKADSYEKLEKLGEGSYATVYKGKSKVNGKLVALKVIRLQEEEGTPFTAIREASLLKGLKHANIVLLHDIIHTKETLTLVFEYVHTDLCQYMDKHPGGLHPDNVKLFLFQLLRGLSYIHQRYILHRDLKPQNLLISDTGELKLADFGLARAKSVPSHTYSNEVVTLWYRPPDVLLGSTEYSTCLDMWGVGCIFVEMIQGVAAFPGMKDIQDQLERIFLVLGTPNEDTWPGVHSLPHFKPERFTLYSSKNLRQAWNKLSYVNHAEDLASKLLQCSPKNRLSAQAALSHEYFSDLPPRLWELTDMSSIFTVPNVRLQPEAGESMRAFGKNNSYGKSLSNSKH
Excerpt: as §1

[3] = target: T3, panel of 442 kinases (Homo sapiens, UniProt P17612)
T3 construct: purchased KINOMEscan
Excerpt: as §1

Row | SMILES | KINOMEscan: PRKX [1] | KINOMEscan: PFTK1 [2] | KINOMEscan: PKAC-alpha [3]
1 | CCOc1cc(C(=O)N2CCC(N3CCN(C)CC3)CC2)ccc1Nc1ncc2c(n1)N(C1CCCC1)c1ccccc1C(=O)N2C [Compound 26] | 100 | 100 | 100
2 | COc1cc(C(=O)N2CCC(N3CCN(C)CC3)CC2)ccc1Nc1ncc2c(n1)N1CCc3cccc(c31)C(=O)N2C [Compound 24] | 87 |  | 
3 | COc1cc(C(=O)N2CCC(N3CCN(C)CC3)CC2)ccc1Nc1ncc2c(n1)N(C)c1ccccc1C(=O)N2C [15 (LRRK2-IN-1)] | 99 | 81 | 100
4 | COc1cc(C(=O)N2CCC(N3CCN(C)CC3)CC2)ccc1Nc1ncc2c(n1)N(C1CCCC1)c1ccccc1C(=O)N2C [Compound 25, 11-cyclopentyl-2-((2-methoxy-4-(4-(4-methylpiperazin-1-yl)piperidine-1-carbonyl)phenyl)amino)-5-methyl-5H-benzo[e]pyrimido[5,4-b][1,4]diazepin-6(11H)-one] | 100 | 100 | 100
